In the NIST ThermoML archive (doi:10.1016/j.jct.2016.03.030):
± gives the expanded uncertainty stated by the source.

Assay: xn = mol fraction of the nth substance listed
Conditions: 100 kPa, Liquid; for viscosity: Falling or rolling sphere viscometry; for mass density: Vibrating tube method

CCCCC[N+]1(C)CCOCC1.[Br-] [4-methyl-4-pentylmorpholinium bromide] + O
viscosity (298.15 K, x1 = 0.0316): 1.957 ± 0.2 mPa·s | viscosity (298.15 K, x1 = 0.0695): 4.131 ± 0.41 mPa·s | viscosity (298.15 K, x1 = 0.0965): 6.746 ± 0.68 mPa·s | viscosity (298.15 K, x1 = 0.1196): 9.795 ± 0.98 mPa·s | viscosity (298.15 K, x1 = 0.1522): 16.25 ± 1.6 mPa·s | viscosity (298.15 K, x1 = 0.2054): 36.11 ± 3.6 mPa·s | viscosity (298.15 K, x1 = 0.219): 44.38 ± 4.5 mPa·s | viscosity (298.15 K, x1 = 0.2438): 64.59 ± 6.5 mPa·s | viscosity (298.15 K, x1 = 0.2754): 103.9 ± 11 mPa·s | mass density (298.15 K, x1 = 0.0316): 1072.8 ± 1.1 kg/m3 | mass density (298.15 K, x1 = 0.0695): 1127.6 ± 1 kg/m3 | mass density (298.15 K, x1 = 0.0965): 1153.8 ± 1 kg/m3 | mass density (298.15 K, x1 = 0.1196): 1170 ± 1 kg/m3 | mass density (298.15 K, x1 = 0.1522): 1187.7 ± 1.1 kg/m3 | mass density (298.15 K, x1 = 0.2054): 1208.2 ± 1.1 kg/m3 | mass density (298.15 K, x1 = 0.219): 1212.2 ± 1.2 kg/m3 | mass density (298.15 K, x1 = 0.2438): 1218.9 ± 1.3 kg/m3 | mass density (298.15 K, x1 = 0.2754): 1226 ± 1.4 kg/m3 | viscosity (303.15 K, x1 = 0.0316): 1.7 ± 0.17 mPa·s | viscosity (303.15 K, x1 = 0.0695): 3.505 ± 0.35 mPa·s | viscosity (303.15 K, x1 = 0.0965): 5.63 ± 0.56 mPa·s | viscosity (303.15 K, x1 = 0.1196): 8.076 ± 0.81 mPa·s | viscosity (303.15 K, x1 = 0.1522): 13.14 ± 1.3 mPa·s | viscosity (303.15 K, x1 = 0.2054): 28.07 ± 2.8 mPa·s | viscosity (303.15 K, x1 = 0.219): 34.04 ± 3.4 mPa·s | viscosity (303.15 K, x1 = 0.2438): 48.66 ± 4.9 mPa·s | viscosity (303.15 K, x1 = 0.2754): 76.46 ± 7.7 mPa·s | mass density (303.15 K, x1 = 0.0316): 1070.5 ± 1.1 kg/m3 | mass density (303.15 K, x1 = 0.0695): 1124.5 ± 1 kg/m3 | mass density (303.15 K, x1 = 0.0965): 1150.6 ± 1 kg/m3 | mass density (303.15 K, x1 = 0.1196): 1166.6 ± 1 kg/m3 | mass density (303.15 K, x1 = 0.1522): 1184.4 ± 1.1 kg/m3 | mass density (303.15 K, x1 = 0.2054): 1204.9 ± 1.1 kg/m3 | mass density (303.15 K, x1 = 0.219): 1208.8 ± 1.2 kg/m3 | mass density (303.15 K, x1 = 0.2438): 1215.6 ± 1.2 kg/m3 | mass density (303.15 K, x1 = 0.2754): 1222.7 ± 1.4 kg/m3 | viscosity (308.15 K, x1 = 0.0316): 1.484 ± 0.15 mPa·s | viscosity (308.15 K, x1 = 0.0695): 2.997 ± 0.3 mPa·s | viscosity (308.15 K, x1 = 0.0965): 4.74 ± 0.48 mPa·s | viscosity (308.15 K, x1 = 0.1196): 6.709 ± 0.67 mPa·s | viscosity (308.15 K, x1 = 0.1522): 10.79 ± 1.1 mPa·s | viscosity (308.15 K, x1 = 0.2054): 22.24 ± 2.2 mPa·s | viscosity (308.15 K, x1 = 0.219): 26.62 ± 2.7 mPa·s | viscosity (308.15 K, x1 = 0.2438): 37.45 ± 3.8 mPa·s | viscosity (308.15 K, x1 = 0.2754): 57.57 ± 5.8 mPa·s | mass density (308.15 K, x1 = 0.0316): 1067.9 ± 1.1 kg/m3 | mass density (308.15 K, x1 = 0.0695): 1121.3 ± 1 kg/m3 | mass density (308.15 K, x1 = 0.0965): 1147.2 ± 1 kg/m3 | mass density (308.15 K, x1 = 0.1196): 1163.3 ± 1 kg/m3 | mass density (308.15 K, x1 = 0.1522): 1181 ± 1.1 kg/m3 | mass density (308.15 K, x1 = 0.2054): 1201.5 ± 1.1 kg/m3 | mass density (308.15 K, x1 = 0.219): 1205.5 ± 1.2 kg/m3 | mass density (308.15 K, x1 = 0.2438): 1212.2 ± 1.2 kg/m3 | mass density (308.15 K, x1 = 0.2754): 1219.4 ± 1.4 kg/m3 | viscosity (313.15 K, x1 = 0.0316): 1.309 ± 0.13 mPa·s | viscosity (313.15 K, x1 = 0.0695): 2.586 ± 0.26 mPa·s | viscosity (313.15 K, x1 = 0.0965): 4.035 ± 0.4 mPa·s | viscosity (313.15 K, x1 = 0.1196): 5.642 ± 0.57 mPa·s | viscosity (313.15 K, x1 = 0.1522): 8.994 ± 0.9 mPa·s | viscosity (313.15 K, x1 = 0.2054): 17.82 ± 1.8 mPa·s | viscosity (313.15 K, x1 = 0.219): 21.2 ± 2.1 mPa·s | viscosity (313.15 K, x1 = 0.2438): 29.17 ± 2.9 mPa·s | viscosity (313.15 K, x1 = 0.2754): 44.03 ± 4.4 mPa·s | mass density (313.15 K, x1 = 0.0316): 1065.3 ± 1.1 kg/m3 | mass density (313.15 K, x1 = 0.0695): 1118.1 ± 1 kg/m3 | mass density (313.15 K, x1 = 0.0965): 1143.9 ± 1 kg/m3 | mass density (313.15 K, x1 = 0.1196): 1159.8 ± 1 kg/m3 | mass density (313.15 K, x1 = 0.1522): 1177.5 ± 1.1 kg/m3 | mass density (313.15 K, x1 = 0.2054): 1198.1 ± 1.1 kg/m3 | mass density (313.15 K, x1 = 0.219): 1202.1 ± 1.2 kg/m3 | mass density (313.15 K, x1 = 0.2438): 1208.9 ± 1.2 kg/m3 | mass density (313.15 K, x1 = 0.2754): 1216.1 ± 1.4 kg/m3 | viscosity (318.15 K, x1 = 0.0316): 1.159 ± 0.12 mPa·s | viscosity (318.15 K, x1 = 0.0695): 2.252 ± 0.23 mPa·s | viscosity (318.15 K, x1 = 0.0965): 3.465 ± 0.35 mPa·s | viscosity (318.15 K, x1 = 0.1196): 4.796 ± 0.48 mPa·s | viscosity (318.15 K, x1 = 0.1522): 7.569 ± 0.76 mPa·s | viscosity (318.15 K, x1 = 0.2054): 14.56 ± 1.5 mPa·s | viscosity (318.15 K, x1 = 0.219): 17.13 ± 1.7 mPa·s | viscosity (318.15 K, x1 = 0.2438): 23.22 ± 2.3 mPa·s | viscosity (318.15 K, x1 = 0.2754): 34.22 ± 3.4 mPa·s | mass density (318.15 K, x1 = 0.0316): 1062.6 ± 1.1 kg/m3 | mass density (318.15 K, x1 = 0.0695): 1114.9 ± 1 kg/m3 | mass density (318.15 K, x1 = 0.0965): 1140.5 ± 1 kg/m3 | mass density (318.15 K, x1 = 0.1196): 1156.4 ± 1 kg/m3 | mass density (318.15 K, x1 = 0.1522): 1174.1 ± 1.1 kg/m3 | mass density (318.15 K, x1 = 0.2054): 1194.7 ± 1.1 kg/m3 | mass density (318.15 K, x1 = 0.219): 1198.7 ± 1.2 kg/m3 | mass density (318.15 K, x1 = 0.2438): 1205.5 ± 1.2 kg/m3 | mass density (318.15 K, x1 = 0.2754): 1212.7 ± 1.4 kg/m3
